Laboratory results: article PMC5754413, “Mass balance, metabolic disposition, and pharmacokinetics of a single oral dose of regorafenib in healthy human subjects” (Cancer Chemotherapy and Pharmacology, 2017)

Experiments:
[1] = Total radioactivity in plasma and whole blood (LSC) after a single oral dose of [14C]regorafenib; type: in vivo, human; settings: for C max of total radioactivity: geometric mean (%CV), N = 4
Protocol: Subjects were screened within the 28 days before scheduled drug administration and entered the clinical unit 1 day before drug administration. After an overnight fasting, subjects received a single oral 120 mg dose of regorafenib, containing approximately 100 μCi (3.7 MBq) [^14C]regorafenib, as a 6 mL solution in an aqueous PEG-based vehicle (Diluent Sol 30 mL oral, Bayer HealthCare AG) followed by 240 mL water. The associated radiation exposure fell within International Commission on Radiological Protection Guidelines for Category IIa studies (0.1–1 mSv).
Blood and plasma: Blood samples (18.7 mL per each time point) were collected into nonbeaded lithium-heparinized tubes immediately pre-dose and at the following post-dose times: 0.5, 1, 1.5, 2, 2.5, 3, 4, 6, 9, 12, 16, 20, 24, 36, 48, 72, 96, 120, 144, 192, 240, and 288 h. For each sample, 1 mL of whole blood was stored at 4 °C for subsequent LSC and the remainder was processed for plasma. Individual 150 μL plasma samples for each time point were treated with formic acid (20 μL) and acetonitrile (450 μL). The samples were homogenized using a MS2 Minishaker® (IKA® Labortechnik, Staufen im Breisgau, Germany). The precipitated proteins were removed by centrifugation (5 min, 13,000 rpm, Biofuge). After concentrating the supernatant to about 80 μL, methanol (15 μL) was added. The individual samples were analyzed by HPLC with off-line radioactivity detection for metabolite profiling.
(§1) Liquid samples: Duplicate aliquots of liquid samples were diluted with 1 mL distilled water, if necessary, and mixed with 10 mL Aquasafe 500 Plus scintillation fluid. Levels of radioactivity were measured by LSC (PerkinElmer 2100) with automatic quench correction by an external standard channel ratio method at 13 °C using Ultima Gold™ as the liquid scintillation cocktail. Lower limits of detection (LLOD) were 30 μg-Eq/L for plasma (sample volume 0.5 mL), 50 μg-Eq/L for whole blood (sample volume 0.3 mL), and 0.016 μg-Eq/g for urine (sample weight 1 g).
Pharmacokinetic outcome measures were generated by non-compartmental analysis of plasma concentration–time data using WinNonlin v4.1 (Pharsight Corporation) in conjunction with Kincalc v2.50 (Bayer AG). […] The metabolite or regorafenib percentages were calculated by AUC(0–144)metabolite or regorafenib divided by AUC(0–144)radioactivity calculated from data obtained by HPLC–LSC analysis. Secondary outcomes were: time to C max (t max); apparent terminal elimination half-life (t ½); apparent volume of distribution during the terminal phase after extravascular administration (Vz/F); and total body clearance of drug calculated after extravascular administration (e.g., apparent oral clearance) (CL/F). AUC was estimated by the sum of partial areas: partial areas were calculated using the linear (if C i ≤ C i+1) or the logarithmic (if C i > C i+1) trapezoidal rules. The quality of the half-life calculation was assessed based on graphs showing the concentration–time profile. […] The extrapolated portion of the AUC from the last measured data point C(t n) to infinity was calculated using the concentration C last,calc, which was calculated from the log-linear regression line used for half-life calculation rather than C(t n). In addition, appropriate pharmacokinetic parameters were derived from the total radioactivity-versus-time data in blood and plasma.

[2] = Mass balance: urinary and fecal excretion of radioactivity and metabolite pattern in excreta; type: in vivo, human
Protocol: Urine: Urine samples were collected at 12-h intervals post-dose on Day 1 and then at 24-h intervals until 288 h post-dose. Urine was stored at 4 °C until it was divided into aliquots for LSC and subsequent metabolite profiling (aliquots were stored at − 20 °C).
Feces: Fecal samples were collected and homogenized in water on a daily basis until 12 days post-dose. Duplicate aliquots of the homogenates were taken for combustion with oxygen (in preparation for LSC), and separate aliquots were used for metabolite profiling.
as §1
Fecal samples: Duplicate aliquots of fecal homogenate (about 0.3 g) were weighed into Combustocones® containing Combustopads® for combustion analysis. Samples were combusted using a Packard Tri-Carb 307 Automatic Sample Oxidizer. The resultant ^14CO2 generated was collected by absorption in Carbo-Sorb (8 mL) to which Permafluor E+ (10 mL) was added. Radioactivity was quantified using a liquid scintillation analyzer (PerkinElmer 2100), with automatic quench correction using an external standard method as urine sample analysis. Samples were allowed to stabilize with respect to heat and light, and each sample was analyzed for 5 min. Prior to calculation of individual results, a background count rate was determined and subtracted from each sample’s count rate. LOD was 0.05 μg-Eq/g (sample weight 0.3 g).
Due to the limited amount of radiocarbon associated with many of the samples, analyses were conducted using HPLC with fraction collection followed by off-line LSC. Samples were analyzed on a 150 × 3 mm Prodigy® ODS-3 100A, 3 µm column (Phenomenex, Aschaffenburg, Germany) protected by 8 × 3 mm Nucleosil® 100-3 C18 HD guard columns (Macherey–Nagel, Düren, Germany). Metabolites were separated with a gradient of aqueous potassium dihydrogen phosphate (1 g/L, pH 2.0, mobile phase A) versus acetonitrile (mobile phase B) at a flow rate of 0.5 mL/min (gradient: 0% B at 0 min, linear to 50% B at 10 min, linear to 60% B at 25 min, linear to 80% B at 26 min, plateau at 80% B to 30 min). The radiochemical profile of [^14C]regorafenib-derived radioactivity was determined for all urine samples, plasma extracts, and fecal homogenate extracts. Here, HPLC fractionation into 96-well plates was followed by off-line LSC (Wallac 1450 MicroBeta liquid scintillation analyzer) after adding 150 μL of scintillation cocktail to each well (Ultima-Flo™ AP, PerkinElmer; sampling rate: 10 s/well) using the Wallac 1450 Microbeta™ Plusliquid detector. Reconstructed radiochemical profiles were compiled from the resulting data.

[3] = Safety assessments in healthy male subjects; type: in vivo, human; settings: single 120 mg dose, four subjects
Protocol: Blood pressure, pulse rate, electrocardiogram, physical examination, urine drug screening, and adverse events were evaluated throughout the study. The investigator obtained and recorded all the observed or reported adverse events, the severity (mild, moderate, or severe) of the events, and the relationship to study drug (in the investigator’s opinion).

[4] = design: method as in PMID 24896071; settings: co-administration of ketoconazole with a single 160 mg dose of regorafenib; cited from earlier work
CYP3A4 = system: CYP3A4; design: method as in PMID 24896071, PMID 27734608; settings: in vitro data; cited from earlier work
[5] = range between subjects, percent of administered dose

CNC(=O)c1cc(Oc2ccc(NC(=O)Nc3ccc(Cl)c(C(F)(F)F)c3)c(F)c2)ccn1 [Regorafenib, 4-[4-({[4-chloro-3-(trifluoromethyl)phenyl]carbamoyl}amino)-3-fluorophenoxy]-N-methylpyridine-2-carboxamide]
Estimated half-lives of total radioactivity, range between subjects ([1]; in vivo): 34 to 42 h | C max of total radioactivity ([1]; plasma): 2.90 mg-Eq/L | % of AUC(144–inf), extrapolated portion ([1]; total radioactivity): % of AUC(144–inf): total (2.6%), extrapolated portion | Binding of regorafenib-derived radioactivity to red blood cells ([1]; whole blood versus plasma radioactivity): does not bind substantially to red blood cells | C max of total radioactivity ([1]; whole blood): 1.95 mg-Eq/L | Dose renally excreted after 96 h ([2]; in vivo): less than 3% | Cumulative renal excretion by 96 h ([2]; mean, percent of dose): 16.6% | Excretion in feces within 8 days ([2]; mean, total radioactivity): 67.7% | Excretion in feces within the first 4 days ([2]; mean, total radioactivity): 46.3% | Radioactivity eliminated in feces, range [2, 5]: 68.3–76.3% | Radioactivity excreted via urine, range [2, 5]: 16.2–24.7% | Electrocardiograms, laboratory investigations, and vital signs [3]: no clinically relevant changes | Treatment-emergent adverse events ([3]; event considered unrelated to study drug): mild, non-serious headache | Increase in mean AUC [4]: 30–40% | Increase in mean C max [4]: 30–40% | Enzyme catalyzing oxidative biotransformation (CYP3A4): predominantly catalyzed by CYP3A4
